Measured values reported in ChEMBL document CHEMBL3774338 (J Med Chem, 2016).

Experiment: Chemical stability assessed as oxidation mediated drug degradation at room temperature exposed to air by mass spectrometric analysis
Type: physicochemical

Stability: Unstable
Structure (SMILES): O=c1[nH]cnc2c(-n3cc(CCN4CCC(c5cc(F)cc(F)c5)CC4)cn3)nccc12
